Consider 1 molecule from paper PMC4119689, “Investigation of the Interaction between Patulin and Human Serum Albumin by a Spectroscopic Method, Atomic Force Microscopy, and Molecular Modeling” (BioMed Research International, 2014).

The experiment addresses T1, human serum albumin (HSA) (Homo sapiens, UniProt P02768).
T1 construct: gene ALB
Kind of experiment: Trp-214 fluorescence quenching titration (association constant KA at […] K), supported by time-resolved fluorescence, UV-Vis, CD and AFM; quenching described as dynamic. It is filed as binding. Particulars: read-out: Equation (3) / K A/M^-1 (converted).

T1 sequence (P02768 25-609): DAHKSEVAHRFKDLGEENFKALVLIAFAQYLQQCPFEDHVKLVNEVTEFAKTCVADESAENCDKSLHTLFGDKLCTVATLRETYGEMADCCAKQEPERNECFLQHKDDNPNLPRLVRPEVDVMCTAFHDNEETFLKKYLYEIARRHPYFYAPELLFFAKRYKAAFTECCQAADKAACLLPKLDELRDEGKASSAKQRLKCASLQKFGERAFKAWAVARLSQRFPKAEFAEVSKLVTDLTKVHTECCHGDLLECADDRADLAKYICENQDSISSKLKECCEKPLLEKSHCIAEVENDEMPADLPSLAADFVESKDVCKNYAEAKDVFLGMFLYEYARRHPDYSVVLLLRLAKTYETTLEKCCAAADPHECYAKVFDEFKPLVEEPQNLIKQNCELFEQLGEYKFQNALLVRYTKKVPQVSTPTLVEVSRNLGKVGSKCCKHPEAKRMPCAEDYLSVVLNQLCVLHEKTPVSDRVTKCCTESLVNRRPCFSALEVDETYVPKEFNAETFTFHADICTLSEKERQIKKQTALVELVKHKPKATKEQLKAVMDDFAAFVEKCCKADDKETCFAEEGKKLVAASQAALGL

For `O=C1C=C2C(=CCOC2O)O1` (stereo not shown) [patulin], the Kd was 38.5 µM.
